Here are results for 17 molecules from patent US5254577A, “Aminomethyloxooxazolidinyl arylbenzene derivatives useful as antibacterial agents” (The Du Pont Merck Pharmaceutical Company, priority 1992, dated 1993).

In brackets after ≈: the same amount, converted by molar mass. Read-outs that look alike come from different tables or passages of the source. Bounds are passed on as bounds.

The subject of one test is Escherichia coli. The test can be described thus: In vitro broth microdilution, 24-hour minimal inhibitory concentration (MIC). It counts as cell-based. The conditions noted are these: Mueller-Hinton broth, read-out: Minimum Inhibitory Concentration. The text has this: (§1) A standard microdilution method (National Committee for Clinical Standards. Tentative standard M7-T. Standard methods for dilution antimicrobial susceptibility tests for bacteria that grow aerobically. National Committee for Clinical Laboratory Standards, Villanova, Pa. 1982) with Mueller-Hinton broth is used to determine the 24-hour minimal inhibitory concentrations (MIC's) for test strains of Staphylococcus aureus and Escherichia coli.
(In general: Dilution methods test growth across graded concentrations, often in twofold steps.)

Test [1] concerns Staphylococcus aureus. The test is described as above. It counts as cell-based. The conditions noted are these: Mueller-Hinton broth, read-out: Minimum Inhibitory Concentration.
Text: as §1

In test [2] the test system is Staphylococcus aureus. Briefly: In vivo activity against Staphylococcus aureus in an acute lethal mouse model. The conditions noted are these: Staphylococcus aureus, 168 h, mice infected intraperitoneally, dosed 1 h and 4 h post-infection, survivors on seventh day, read-out: ED50. As to the method: The in vivo potency of these compounds is exemplified by the data summarized in Table X. Determinations of in vivo efficacy are performed by inoculating mice intraperitoneally with cultures of the infecting organism diluted to produce 100% mortality in control animals within twenty-four hours. The culture of S. aureus used to infect the animals was diluted to the required bacterial density using 5% aqueous hog gastric mucin. The compounds are dissolved or suspended in 0.25% aqueous Methocel® (Methocel®: Hydroxypropyl Methylcullulose, E15 Premium, Dow Chemical Company) for oral administration or sterile distilled water containing 5% dimethylsulfoxide (Fisher Scientific Company, Fairlawn, N.J.) for subcutaneous administration. The mice are dosed at one hour and at four hours post-infection. Mortality is recorded daily until test determination seven days post infection. The number of survivors in each treatment group on the seventh day after infection is used in the calculation of the ED50, the dose of compound that protects 50% of the mice (Litchfield,J. T. and Wildoxon. A simulated method for evaluating dose-effect experiments. J. Pharmacol Exp. Ther., 98:99-113, 1949).

Setting [3] is: sc, Subcutaneous Administration.

With `CC(=O)NC[C@H]1CN(c2ccc(-c3ccccc3)cc2)C(=O)O1` [Example 3, (l)-N-[3-(4-Phenylphenyl)-2-oxooxazolidin-5-ylmethyl]acetamide], the values for the MIC with Escherichia coli and in the test with Staphylococcus aureus [1] were more than 128 µg/mL and 0.5 µg/mL (≈ 1.61 µM), respectively. Also, the ED50 (in general, the dose that gives a 50% effect, or the effect in half of the subjects) with Staphylococcus aureus [2] (Oral Administration) worked out at 2.9 mg/kg; in the test on Staphylococcus aureus [2] (setting [3]) it was 2 mg/kg.
Consider `CC(=O)NC[C@H]1CN(c2ccc(-c3ccc(CO)cc3)cc2)C(=O)O1` [Example 28], for which the MIC in the test on Escherichia coli is more than 128 µg/mL; in the test on Staphylococcus aureus [1], less than 0.13 µg/mL. In addition, the ED50 stood at 52.6 mg/kg in the test with Staphylococcus aureus [2] (Oral Administration) and 30 mg/kg in the test on Staphylococcus aureus [2] (setting [3]).
`CC(=O)NC[C@H]1CN(c2ccc(-c3ccc(C(C)OC(=O)CCC(=O)O)cc3)cc2)C(=O)O1` (stereo partly shown) [Example 29]: the MIC in the test with Escherichia coli is more than 128 µg/mL; in the test with Staphylococcus aureus [1], 4 µg/mL (≈ 8.8 µM). Further, the results for the ED50 in the test with Staphylococcus aureus [2] (Oral Administration) and in the test on Staphylococcus aureus [2] (setting [3]) were 16.1 mg/kg and 9.8 mg/kg, respectively.
`CC(=O)NC[C@H]1CN(c2ccc(-c3ccc(C(O)CCN4CCN(C)CC4)cc3)cc2)C(=O)O1` (stereo partly shown) [Example 61]: the MIC was more than 128 µg/mL in the test on Escherichia coli and 2 µg/mL (≈ 4.29 µM) in the test with Staphylococcus aureus [1]. The ED50 with Staphylococcus aureus [2] (Oral Administration) turned out to be 47.4 mg/kg; in the test with Staphylococcus aureus [2] (setting [3]) it was 2.7 mg/kg.
For the molecule `CC(=O)NCC1CN(c2ccc(-c3ccc([N+](C)(C)[O-])cc3)cc2)C(=O)O1` (stereo not shown) [Example 116], the MIC in the test on Escherichia coli was more than 128 µg/mL; with Staphylococcus aureus [1], 16 µg/mL (≈ 43.3 µM). In addition, the ED50 with Staphylococcus aureus [2] (setting [3]) is 6.4 mg/kg.
Consider `CC(=O)NC[C@H]1CN(c2ccc(-c3ccccc3C)cc2)C(=O)O1` [Example 71], for which the MIC is more than 128 µg/mL in the test on Escherichia coli and 2 µg/mL (≈ 6.17 µM) in the test on Staphylococcus aureus [1]. The ED50 with Staphylococcus aureus [2] (Oral Administration) is 51.9 mg/kg; in the test on Staphylococcus aureus [2] (setting [3]) it was more than 90 mg/kg.
In the case of `CC(=O)NC[C@H]1CN(c2ccc(-c3ccc([S+](C)[O-])cc3)cc2)C(=O)O1` (single isomer, unassigned) [Example 68, (l)-N-[3-(4-(4'-methylsulfinylphenyl)phenyl)-2-oxooxazolidin-5-ylmethyl]acetamide], the MIC with Escherichia coli is more than 128 µg/mL; in the test with Staphylococcus aureus [1], 0.25 µg/mL (≈ 0.671 µM). The ED50 worked out at 2.2 mg/kg in the test with Staphylococcus aureus [2] (Oral Administration) and 0.7 mg/kg with Staphylococcus aureus [2] (setting [3]).
`CC(=O)NC[C@H]1CN(c2ccc(-c3ccc(C(=O)CCN(C)C)cc3)cc2)C(=O)O1` [Example 57, (l)-N-[3-(4-(4'-(3-N,N-dimethylaminopropionyl)phenyl)phenyl)-2-oxooxazolidin-5-ylmethyl]acetamide]: the MIC was more than 128 µg/mL with Escherichia coli and 1 µg/mL (≈ 2.44 µM) in the test with Staphylococcus aureus [1]. In addition, the ED50 in the test on Staphylococcus aureus [2] (Oral Administration) stood at 18 mg/kg; in the test on Staphylococcus aureus [2] (setting [3]), 10 mg/kg.
On to `CC(=O)NC[C@H]1CN(c2ccc(-c3ccc(C(C)=O)cc3)cc2)C(=O)O1` [Example 4, (l)-N-[3-(4-(4'-Acetylphenyl)phenyl)-2-oxooxazolidin-5-ylmethyl]acetamide], for which the values for the MIC in the test on Escherichia coli and in the test on Staphylococcus aureus [1] were more than 128 µg/mL and 0.5 µg/mL (≈ 1.42 µM), respectively. Moreover, the ED50 is 22 mg/kg in the test on Staphylococcus aureus [2] (Oral Administration) and 39.7 mg/kg in the test on Staphylococcus aureus [2] (setting [3]).
On to `CC(=O)NC[C@H]1CN(c2ccc(-c3cccc(N)c3)cc2)C(=O)O1` [Example 73], for which the values for the MIC with Escherichia coli and in the test on Staphylococcus aureus [1] were more than 128 µg/mL and 0.5 µg/mL (≈ 1.54 µM), respectively. In addition, the values for the median effective dose (ED50) with Staphylococcus aureus [2] (Oral Administration) and in the test with Staphylococcus aureus [2] (setting [3]) were 11.8 mg/kg and 5 mg/kg, respectively.
On to `CSc1ccc(-c2ccc(N3C[C@H](CNC(C)=O)OC3=O)cc2)cc1` [Example 67, (l)-N-[3-(4-(4'-methylthiophenyl)phenyl)-2-oxooxazolidin-5-ylmethyl]acetamide], for which the MIC with Escherichia coli was more than 128 µg/mL; in the test with Staphylococcus aureus [1], 0.25 µg/mL (≈ 0.701 µM). Further, the median effective dose (ED50) stood at 4.5 mg/kg in the test with Staphylococcus aureus [2] (Oral Administration) and 30 mg/kg in the test with Staphylococcus aureus [2] (setting [3]).
Regarding `CCC(=O)c1ccc(-c2ccc(N3C[C@H](CNC(C)=O)OC3=O)cc2)cc1` [Example 7], the figures for the MIC with Escherichia coli and with Staphylococcus aureus [1] were more than 128 µg/mL and 2 µg/mL (≈ 5.46 µM), respectively. Besides, the ED50 with Staphylococcus aureus [2] (setting [3]) amounted to 90 mg/kg.
Turning to `CCCN(CCC)Cc1ccc(-c2ccc(N3C[C@H](CNC(C)=O)OC3=O)cc2)cc1` [Example 44, (l)-N-[3-(4-(4'-di-n-propylaminomethylphenyl)phenyl)-2-oxooxazolidin-5-ylmethyl]acetamide], the MIC with Escherichia coli is more than 128 µg/mL; in the test with Staphylococcus aureus [1], 4 µg/mL (≈ 9.44 µM). In addition, the ED50 came to 8.6 mg/kg in the test with Staphylococcus aureus [2] (Oral Administration) and 3.7 mg/kg in the test with Staphylococcus aureus [2] (setting [3]).
`CC(=O)NC[C@H]1CN(c2ccc(-c3ccnc(N)n3)cc2)C(=O)O1` [Example 135]: the MIC with Escherichia coli is more than 128 µg/mL; in the test on Staphylococcus aureus [1], 4 µg/mL (≈ 12.2 µM). Besides, in the test with Staphylococcus aureus [2] (Oral Administration), the 50% effective dose (ED50) came to 68 mg/kg.
`CC(=O)NC[C@H]1CN(c2ccc(-c3ccc[n+]([O-])c3)cc2)C(=O)O1` [Example 89]: the MIC is more than 128 µg/mL in the test with Escherichia coli and 2 µg/mL (≈ 6.11 µM) in the test on Staphylococcus aureus [1]. The ED50 was 2 mg/kg in the test on Staphylococcus aureus [2] (Oral Administration) and less than 3.3 mg/kg in the test on Staphylococcus aureus [2] (setting [3]).
`CC(=O)NC[C@H]1CN(c2ccc(-c3ccc(CN(CCO)CCO)cc3)cc2)C(=O)O1` [Example 50]: the results for the MIC with Escherichia coli and with Staphylococcus aureus [1] were more than 128 µg/mL and 0.5 µg/mL (≈ 1.17 µM), respectively. Besides, the ED50 with Staphylococcus aureus [2] (setting [3]) was found to be 6.5 mg/kg.
Take `CC(=O)NC[C@H]1CN(c2ccc(-c3ccc(C(O)C(C)CN4CCN(C)CC4)cc3)cc2)C(=O)O1` (stereo partly shown) [Example 64]: the results for the MIC in the test on Escherichia coli and in the test on Staphylococcus aureus [1] were more than 128 µg/mL and 4 µg/mL (≈ 8.32 µM), respectively. Moreover, the results for the ED50 in the test on Staphylococcus aureus [2] (Oral Administration) and with Staphylococcus aureus [2] (setting [3]) were 50 mg/kg and 11 mg/kg, respectively.
